Data published in patent US20020132266A1, “Method for modifying and identifying functional sites in proteins” (priority 1998, published 2002).
{Fluorescein} = fluorescein label

Target: T1, human α-Thrombin (Homo sapiens, UniProt P00734)
T1 construct: the light chain and the heavy chain were separated by reverse phase chromatography; gift from Prof; Bode, MPI Martinsried
Experiment: CALI experiment: serine-protease activity of thrombin measured with Chromozym TH after laser irradiation
Type: biochemical
Settings: 0.38 μM thrombin, 0.76 μM aptamer (1:2); argon ion laser 496 nm, 800 mW, 30 seconds per well; percentage of thrombin activity in a non-irradiated control; Chromozym TH substrate
Protocol: Complexes were formed by mixing 7.6 μM thrombin with the fluorescein-labeled aptamer (1:2 molar ratio) in 50 mM Tris buffer, pH 8.3, 100 mM NaCl, and an incubation time of 30 min on ice in the dark.
Control samples were prepared as described above, either omitting the aptamer, using a non-labeled aptamer or an equal concentration of FITC. Subsequently, the solutions were diluted 20-fold with the same buffer. The final concentrations were 0.38 μM thrombin and 0.76 μM aptamer. The samples were pipetted in 100 μl aliquots into wells of a flat bottom 96-well microtiter plate (Nunc A/S, Roskilde, DK), typically 1.2 ml or 12 wells total per sample. The plate was blocked with 1% BSA in PBS for 1 hour and then washed extensively prior to use.
The serine-protease activity of thrombin was measured using Chromozym TH (Roche Diagnostics GmbH, Mannheim, Germany) as substrate. […] The absorbance increase at 405 nm, due to the cleavage of Chromozym TH into a residual peptide and free […] by thrombin, was followed with the time. The absorbance difference per minute, calculated in the linear range, was used to calculate the thrombin activity in U/ml. […]

## Flu-THR15: fluorescein-labeled, thrombin-specific aptamer, 15-mer oligonucleotide GGTTGGTGTGGTTGG with the fluorescein moiety linked to its 5′ end (DNA, 5' {Fluorescein}, backbone not given here)
  thrombin inactivation upon irradiation (CALI effect): 55%
